US10308656B2, “Small molecule inhibitors of Ku70/80 and uses thereof” (ARIZONA BOARD OF REGENTS ON BEHALF OF THE UNIVERSITY OF …, priority 2015, dated 2019)
“Also recorded” adds a separate entry of the source.

Experiments:
[1] = Tolerability and toxicity after bolus IP injection with two week follow-up; type: in vivo; conditions: mice
[2] = Pharmacokinetic profile after bolus IP injection, plasma levels by LC-MS; type: in vivo, nude mice; conditions: bolus IP 1, 3 or 5 mg/kg
Method: A bolus IP injection of Compound L was given at either 1, 3, or 5 mg/kg and plasma levels of Compound L were determined by LC-MS.

[3] = tested on: hTERT immortalized prostate epithelial (PrEC) cells; experiment: Radiation sensitization / cytotoxicity by MTS assay in prostate epithelial cells; type: cell-based, human; conditions: immortalized PrEC, concurrent compound and radiation, FIG. 5B
Method: (§1) Consequently, this substance could have an effect on the efficiency of overall repair of DSBs. In order to examine this potential, experiments tested Compound L for its ability to potentiate the effects of ionizing radiation on two human cell lines: the glioblastoma cell line SF-767 (FIG. 5A), and an hTERT immortalized prostate epithelial (PrEC) cell line (see, R. Berger, et al., Cancer Res., 64 (2004), pp. 8867-8875) (FIG. 5B). Cultured cells were treated with either the compound as a single modality, ionizing radiation as a single modality or with a regimen of concurrent radiation and compound. Cell viability was measured after a six day recovery period by standard MTS assay and normalized to the untreated control (no compound or radiation). FIG. 5 presents the observed effects of each treatment modality in terms of percentage non-viable cells. The effects are plotted as a function of the compound's concentration in the culture medium.
(§2) As expected, experiments observed a clear, dose-dependent increase in non-viable cell population with increasing concentrations of Compound L (FIG. 5, red columns). […] In order to exclude the possibility that this phenomenon was caused by mere additive effects, experiments calculated the sum of the effects of the single modalities (FIG. 5, purple columns) and compared the obtained values with the effects of the combination treatments. […]

[4] = as above; type: cell-based, human; conditions: human, hTERT immortalized prostate epithelial (PrEC) cells; PrEC, up to 25 μM, MTS after six day recovery; read-out: Non-viability (toxicity of compound as single modality)
Method: as §1, §2

[5] = tested on: DNA-PKCS SER2056 autophosphorylation in SF-767 cells; experiment: DNA-PKCS autophosphorylation assay (Western blot) after etoposide-induced DSBs; type: cell-based, human
Excerpt: In order to further examine the effects of Compound L on Ku-dependent activation of the DNA-PKCS kinase in vivo, experiments also exposed cultures of the human glioblastoma cell line SF-767 to increasing concentrations of Compound L. Upon induction of DSBs by etoposide, experiments quantified the levels of DNA-PKCS autophosphorylation at the SER2056 residue by means of Western blot analysis (FIG. 4B).

[6] = tested on: DNA double strand break (DSB) repair in glioblastoma cells (SF767); experiment: DSB repair after radiation by γ-H2AX phosphorylation; type: cell-based, human; conditions: 25 μM, post radiation
Method: This repair process is dependent on active Ku70/80 and the suppression of Ku-dependent DSB repair is further proof that Compound L inhibits Ku70/80 activity. The relative amount of DSBs is measured by counting the relative intensity of a canonical DSB marker: γ-H2AX.
Relative number of DSBs was measured by quantifying and normalizing γ-H2AX phosphorylation. […] Measured in human glioblastoma cells (SF767). Error bars represent standard error.

[7] = biological target: Ku70/80 heterodimer-DNA interaction (Homo sapiens, UniProt P12956+P13010); experiment: Electrophoretic Mobility Shift Assay (EMSA) of Ku70/80 binding to a DNA substrate; conditions: for Disruption of Ku70/80-DNA interaction (disappearance of the band shift): compound at 100 μM in EMSA reaction
Chain of Ku70/80 heterodimer-DNA interaction (P12956 whole entry): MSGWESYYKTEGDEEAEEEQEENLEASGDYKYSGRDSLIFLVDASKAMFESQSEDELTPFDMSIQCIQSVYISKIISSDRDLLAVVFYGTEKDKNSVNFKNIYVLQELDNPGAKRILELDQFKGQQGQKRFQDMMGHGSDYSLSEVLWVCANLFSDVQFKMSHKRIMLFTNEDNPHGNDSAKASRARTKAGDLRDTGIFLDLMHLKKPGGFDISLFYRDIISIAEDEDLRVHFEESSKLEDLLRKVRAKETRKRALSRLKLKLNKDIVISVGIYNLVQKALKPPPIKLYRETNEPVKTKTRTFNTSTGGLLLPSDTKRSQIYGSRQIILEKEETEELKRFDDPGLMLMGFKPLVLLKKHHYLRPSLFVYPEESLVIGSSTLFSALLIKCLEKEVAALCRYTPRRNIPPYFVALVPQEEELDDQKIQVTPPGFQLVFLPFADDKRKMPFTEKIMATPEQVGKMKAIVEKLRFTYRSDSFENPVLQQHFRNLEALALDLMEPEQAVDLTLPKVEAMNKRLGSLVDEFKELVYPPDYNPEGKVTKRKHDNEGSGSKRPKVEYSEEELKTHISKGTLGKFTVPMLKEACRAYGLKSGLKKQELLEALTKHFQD
Chain of Ku70/80 heterodimer-DNA interaction (P13010 whole entry): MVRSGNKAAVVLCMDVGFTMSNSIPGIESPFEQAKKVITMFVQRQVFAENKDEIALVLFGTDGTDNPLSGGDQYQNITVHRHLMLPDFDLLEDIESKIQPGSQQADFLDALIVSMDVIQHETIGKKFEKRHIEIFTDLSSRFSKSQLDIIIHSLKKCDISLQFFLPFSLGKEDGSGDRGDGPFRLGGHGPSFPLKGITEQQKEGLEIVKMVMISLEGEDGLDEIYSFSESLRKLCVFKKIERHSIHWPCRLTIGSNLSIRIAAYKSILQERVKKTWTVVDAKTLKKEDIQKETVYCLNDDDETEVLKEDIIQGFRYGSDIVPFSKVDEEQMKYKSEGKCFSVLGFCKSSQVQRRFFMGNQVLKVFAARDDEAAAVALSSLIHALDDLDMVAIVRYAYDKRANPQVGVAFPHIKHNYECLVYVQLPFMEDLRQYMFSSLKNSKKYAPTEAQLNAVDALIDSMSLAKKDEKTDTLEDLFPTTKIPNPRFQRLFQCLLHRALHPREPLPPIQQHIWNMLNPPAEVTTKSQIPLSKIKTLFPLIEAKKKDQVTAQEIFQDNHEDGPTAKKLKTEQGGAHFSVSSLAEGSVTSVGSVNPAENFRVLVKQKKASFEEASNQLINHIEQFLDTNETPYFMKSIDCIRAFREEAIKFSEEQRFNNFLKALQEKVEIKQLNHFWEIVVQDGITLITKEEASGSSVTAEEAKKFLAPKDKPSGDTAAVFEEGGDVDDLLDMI
Excerpt: Next, the described ‘protomol’ was utilized as a guide to screen small molecule databases for potential inhibitors. Hits were sorted from highest to lowest docking scores and nine compounds were ultimately chosen for biological activity screening (see, Table 1). These compounds were commercially obtained and designated with a letter (A through H, and L). For initial activity screening experiments utilized an Electrophoretic Mobility Shift Assay (EMSA), in which a radioactively labeled artificial DNA substrate was incubated with a preparation of purified Ku70/80 protein, followed by non-denaturing gel electrophoresis. Interaction of Ku70/80 with DNA caused a measurable shift of the DNA band. […] Compounds C and L were further investigated for their ability to disrupt the Ku70/80 DNA interaction as well as Ku-dependent activation of the DNA-PKcs kinase.
Therefore, a two orders of magnitude range of serial dilutions of the compounds was added to the previously described EMSA reactions. Inhibition of Ku-DNA interaction in a straight forward dose-dependent manner by compound L alone was observed (FIG. 3B). In order to quantify the relative efficiency of Ku-DNA binding for each dose of Compound L, the intensity of the Ku-DNA bands in the EMSA assay was measured and normalized those values to a number between 0 and 100, where the value 0 represents a reaction where no Ku70/80 was present and the value 100 represents a reaction where no inhibitor was added. These normalized values were subsequently plotted against the corresponding concentrations of Compound L (FIG. 3B). A logarithmic trend line was added and equations were obtained to describe the dose-response curves of Compound L in the EMSA assay. […] IC50 values in this range are generally considered to be a viable starting point for lead-finding exploits.

[8] = biological target: DNA-PKCS kinase (Ku-dependent activation) (Homo sapiens, UniProt P12956+P13010); experiment: DNA-PKCS kinase activity assay, Ku70/80-dependent in vitro phosphorylation of a p53-based peptide substrate; type: biochemical; conditions: for Impairment of Ku-dependent activation of DNA-PKCS: in vitro
Chain of DNA-PKCS kinase (Ku-dependent activation) (P12956 whole entry): as the sequence (P12956 whole entry) above
Chain of DNA-PKCS kinase (Ku-dependent activation) (P13010 whole entry): as the sequence (P13010 whole entry) above
Excerpt: To further validate the Ku-inhibitory activity of Compound L, experiments examined its effects on Ku-dependent activation of the DNA-PKCS kinase. […] It is, however, a potent co-factor for the activation of other NHEJ enzymes, including DNA-PKCS (see, G. C. Smith, et al., Genes Dev., 13 (1999), pp. 916-934). It was therefore reasoned that disruption of the Ku-DNA interaction by Compound L should also diminish DNA-PKCS kinase activity. The DNA-PKCS kinase has multiple known downstream targets, including p53, Artemis, and DNA-PKCS itself (see, E. Weterings, et al., Cell Res., 18 (2008), pp. 114-124; G. C. Smith, et al., Genes Dev., 13 (1999), pp. 916-934). It is at present not entirely clear which targets are critical for the overall DNA repair response, but it is evident that the kinase domain of DNA-PKCS is indispensable. Experiments therefore quantified the kinase activity of a purified preparation of the DNA-PKCS protein in the presence of different concentrations of Compound L. Experiments measured the phosphorylation of a p53-based peptide substrate as an arbitrary reporter of DNA-PKCS kinase activity. The obtained in vitro DNA-PKCS kinase activities were subsequently normalized and plotted as a function of compound L concentration (FIG. 4A). Experiments observed a sharp dose-dependent inhibition of DNA-PKCS kinase activity. […] Therefore, both primary (EMSA) and secondary (DNA-PKCS activity) assays for the Ku-inhibitory potential of Compound L indicate an IC50 value in the lower micro-molar range.
This example compares the in vitro activity of several structural analogs of Compound L. This assay measures the effect of each compound on the in vitro activity of the DNA-PKCS kinase.

[9] = tested on: SF-767 glioblastoma cells; experiment: Radiation sensitization / cytotoxicity by MTS assay in glioblastoma cells; type: cell-based, human; conditions: for Sensitization to radiation therapy (RT): human glioblastoma multiforme (GBM) cells
Method: as §1
(§3) As expected, experiments observed a clear, dose-dependent increase in non-viable cell population with increasing concentrations of Compound L (FIG. 5, red columns). This reflects the fundamental cytotoxicity of the compound under the chosen experimental conditions. In both cell lines, toxicity of Compound L stayed low (below 5% non-viability) up to 25 μM, after which an exponential increase in cytotoxicity was observed. […] In order to exclude the possibility that this phenomenon was caused by mere additive effects, experiments calculated the sum of the effects of the single modalities (FIG. 5, purple columns) and compared the obtained values with the effects of the combination treatments. By definition, synergism is present when the effect of the combination therapy (green columns) exceeds the sum of the effects of the single modalities (purple columns). In SF-767 cells, synergism was most clearly observed between 20 and 30 μM (FIG. 5A) and in immortalized PrEC cells synergism was present in the 20-35 μM range (FIG. 5B).
(§4) This is done by means of a standard MTS assay, measuring survival of human glioblastoma (SF767) or immortalized prostate epithelial (PrEC) cells 7 days after treatment with compounds and radiation therapy. […] The radiation-sensitizing potential of Compound L and JV761 is attributable to the ability of these compounds to suppress the activity of Ku70/80 in vivo.

[10] = as above; type: cell-based, human; conditions: human, SF-767 glioblastoma cells; SF-767, up to 25 μM, MTS after six day recovery; read-out: Non-viability (toxicity of compound as single modality)
Method: as §1, §3, §4

COc1ccc(CCNc2ncc3c(=O)n(-c4cccc(F)c4)c(=O)[nH]c3n2)cc1OC [Compound L, 7-[[2-(3,4-dimethoxyphenyl)ethyl]amino]-3-(3-fluorophenyl)pyrimido[4,5-d] pyrimidine-2,4(1H,3H)-dione]
Histopathology and comprehensive blood panels ([1]; after two weeks): no abnormalities; also recorded: normal
Signs of toxicity ([1]; bolus IP, acute and two week follow-up): did not reveal any acute toxicity; also recorded: did not reveal signs of toxicity
Tolerability ([1]; single bolus IP injection up to 5 mg/kg): well tolerated
Plasma levels versus dose ([2]; LC-MS): directly proportional to dose
half-life ([2]; mouse, plasma, nude mice): ~1.5 h
Concentration range of synergism with radiation [3]: 20 to 35 µM
cytotoxicity at 6 days [4]: < 5%
Total DNA-PKCS level ([5]; Western blot): not suppressed
DNA-PKCS autophosphorylation at the SER2056 residue ([5]; increasing doses, etoposide): sharp decline
DSB repair kinetics (γ-H2AX) [6]: significantly delayed
IC50 ([7]; EMSA titration, logarithmic trend line, read-out: IC50, dose needed to inhibit 50% of maximal Ku-DNA binding): 3.5 µM
Disruption of Ku70/80-DNA interaction (disappearance of the band shift) [7]: disruption of the Ku70/80-DNA interaction; also recorded: screen positive for disruption of Ku70/80-DNA interaction; also recorded: capable of disrupting the binding of Ku to DNA
Impairment of Ku-dependent activation of DNA-PKCS [8]: capable of disrupting the binding of Ku to DNA as well as the activation of DNA-PKCS
IC50 ([8]; p53-based peptide substrate, logarithmic trend line): 2.5 µM
Concentration range of synergistic radiation-sensitization ([9]; human cancer cells, 4Gy radiation, MTS 7 days after treatment, FIG. 9): 20 to 30 µM
Sensitization to radiation therapy (RT) [9]: synergistically sensitize
cytotoxicity at 6 days [10]: < 5%

COc1ccc(N2CCN(Cc3nc(N)nc(Nc4cccc(C)c4)n3)CC2)cc1 [Compound C, 4-[[4-(4-methoxyphenyl)piperazin-1-yl]methyl]-6-(m-tolyimino)-5H-1,3,5-triazin-2-amine]
Disruption of Ku70/80-DNA interaction (disappearance of the band shift) [7]: disruption of the Ku70/80-DNA interaction; also recorded: screen positive for disruption of Ku70/80-DNA interaction; also recorded: capable of disrupting the binding of Ku to DNA
Impairment of Ku-dependent activation of DNA-PKCS [8]: capable of disrupting the binding of Ku to DNA as well as the activation of DNA-PKCS
Sensitization to radiation therapy (RT) [9]: synergistically sensitize
